# From patent publication US9169254B2, “Spiroimidazolone derivative” (Chugai Seiyaku Kabushiki Kaisha, priority 2009, dated 2015)
# Biological target: T1, human PTH1 receptor (Homo sapiens, UniProt Q03431)
# T1 sequence (Q03431 27-593): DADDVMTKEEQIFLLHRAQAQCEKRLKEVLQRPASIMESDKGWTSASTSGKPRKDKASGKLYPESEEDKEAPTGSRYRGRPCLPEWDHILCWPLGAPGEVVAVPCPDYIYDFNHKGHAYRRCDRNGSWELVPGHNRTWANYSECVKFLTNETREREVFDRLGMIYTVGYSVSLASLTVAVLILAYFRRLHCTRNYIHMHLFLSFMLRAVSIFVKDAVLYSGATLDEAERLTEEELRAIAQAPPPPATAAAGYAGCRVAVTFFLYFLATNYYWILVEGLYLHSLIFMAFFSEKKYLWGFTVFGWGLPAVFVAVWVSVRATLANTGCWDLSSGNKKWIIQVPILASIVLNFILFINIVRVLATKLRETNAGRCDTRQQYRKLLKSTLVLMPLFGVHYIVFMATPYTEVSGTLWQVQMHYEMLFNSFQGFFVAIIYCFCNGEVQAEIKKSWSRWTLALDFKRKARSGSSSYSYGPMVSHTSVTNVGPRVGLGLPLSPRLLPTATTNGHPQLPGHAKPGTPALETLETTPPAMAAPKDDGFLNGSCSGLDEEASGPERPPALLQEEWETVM
# Assay: In vitro cAMP signal activity in HKRK-B7 cells (LLC-PK1 cells overexpressing the human PTH1 receptor)
# Assay type: cell-based
# Details: HKRK-B7 cells; compound at 1×10^−3 M; cAMP produced as percentage of that produced by hPTH(1-34) at 100 nM
row,cAMP production activity (%),Compound
1,86,"Cc1cc(C(=O)N2CCC(O)(CF)CC2)cc(C)c1/C=C/S(=O)(=O)N1CCC2(CC1)N=C(C1CCC(C)CC1)NC2=O (stereo not shown) [Compound 1000, 8-{(E)-2-[4-(4-fluoromethyl-4-hydroxy-piperidine-1-carbonyl)-2,6-dimethyl-phenyl]-ethenesulfonyl}-2-(4-methyl-cyclohexyl)-1,3,8-triaza-spiro[4.5]dec-1-en-4-one]"
2,64,"Cc1cc(C(=O)N2CCCO2)cc(C)c1/C=C/S(=O)(=O)N1CCC2(CC1)N=C(C1CCC(C)CC1)NC2=O (stereo not shown) [Compound 1001, 8-{(E)-2-[4-(isoxazolidine-2-carbonyl)-2,6-dimethyl-phenyl]-ethenesulfonyl}-2-(4-methyl-cyclohexyl)-1,3,8-triaza-spiro[4.5]dec-1-en-4-one]"
3,50,"Cc1cc(C(=O)N2CCS(=O)(=O)CC2)cc(C)c1/C=C/S(=O)(=O)N1CCC2(CC1)N=C(C1CCC(C)CC1)NC2=O (stereo not shown) [Compound 1002, 8-{(E)-2-[4-(1,1-dioxo-1λ^6-thiomorpholine-4-carbonyl)-2,6-dimethyl-phenyl]-ethenesulfonyl}-2-(4-methyl-cyclohexyl)-1,3,8-triaza-spiro[4.5]dec-1-en-4-one]"
4,67,"Cc1cc(C(=O)N(C)C)cc(C)c1/C=C/S(=O)(=O)N1CCC2(CC1)N=C(C1CCC(C)CC1)NC2=O (stereo not shown) [Compound 1003, 3,5,N,N-tetramethyl-4-{(E)-2-[2-(4-methyl-cyclohexyl)-4-oxo-1,3,8-triaza-spiro[4.5]dec-1-ene-8-sulfonyl]-vinyl}-benzamide]"
5,52,"Cc1cc(C(=O)N2CCC(O)(C(F)(F)F)CC2)cc(C)c1/C=C/S(=O)(=O)N1CCC2(CC1)N=C(C1CCCCC1)NC2=O [Compound 1006, 2-Cyclohexyl-8-{(E)-2-[4-(4-hydroxy-4-trifluoromethyl-piperidine-1-carbonyl)-2,6-dimethyl-phenyl]-ethenesulfonyl}-1,3,8-triaza-spiro[4.5]dec-1-en-4-one]"
6,20,"Cc1cc(C(=O)N2CCOC2=O)cc(C)c1/C=C/S(=O)(=O)N1CCC2(CC1)N=C(C1CCCCC1)NC2=O [Compound 1007, 2-Cyclohexyl-8-{(E)-2-[2,6-dimethyl-4-(2-oxo-oxazolidine-3-carbonyl)-phenyl]-ethenesulfonyl}-1,3,8-triaza-spiro[4.5]dec-1-en-4-one]"
7,73,"CCCCC1CCC(C2=NC3(CCN(S(=O)(=O)/C=C/c4c(C)cc(C(=O)N5CCC(OCCO)CC5)cc4C)CC3)C(=O)N2)CC1 (stereo not shown) [Compound 1008, 2-(4-Butyl-cyclohexyl)-8-((E)-2-{4-[4-(2-hydroxy-ethoxy)-piperidine-1-carbonyl]-2,6-dimethyl-phenyl}-ethenesulfonyl)-1,3,8-triaza-spiro[4.5]dec-1-en-4-one]"
8,70,"CCCCC1CCC(C2=NC3(CCN(S(=O)(=O)/C=C/c4c(C)cc(C(=O)N5CCC(OCCOCCO)CC5)cc4C)CC3)C(=O)N2)CC1 (stereo not shown) [Compound 1009, 2-(4-butyl-cyclohexyl)-8-[(E)-2-(4-{4-[2-(2-hydroxy-ethoxy)-ethoxy]-piperidine-1-carbonyl}-2,6-dimethyl-phenyl)-ethenesulfonyl]-1,3,8-triaza-spiro[4.5]dec-1-en-4-one]"
9,96,"Cc1cc(C(=O)N2CCC(OC[C@H](O)CO)CC2)cc(C)c1/C=C/S(=O)(=O)N1CCC2(CC1)N=C(CCCCCCCCC(F)(F)F)NC2=O [Compound 1010, 8-((E)-2-{4-[4-((R)-2,3-Dihydroxy-propoxy)-piperidine-1-carbonyl]-2,6-dimethyl-phenyl}-ethenesulfonyl)-2-(9,9,9-trifluoro-nonyl)-1,3,8-triaza-spiro[4.5]dec-1-en-4-one]"
10,17,"Cc1cc(N(C)C(=O)CN)cc(C)c1/C=C/S(=O)(=O)N1CCC2(CC1)N=C(c1cccc(OC(F)(F)F)c1)NC2=O [Compound 1011, 2-Amino-N-(3,5-dimethyl-4-{(E)-2-[4-oxo-2-(3-trifluoromethoxy-phenyl)-1,3,8-triaza-spiro[4.5]dec-1-ene-8-sulfonyl]-vinyl}-phenyl)-N-methyl-acetamide]"
11,87,"Cc1cc(N(C)C(=O)OCCO)cc(C)c1/C=C/S(=O)(=O)N1CCC2(CC1)N=C(c1cccc(OC(F)(F)F)c1)NC2=O [Compound 1012, (3,5-Dimethyl-4-{(E)-2-[4-oxo-2-(3-trifluoromethoxy-phenyl)-1,3,8-triaza-spiro[4.5]dec-1-ene-8-sulfonyl]-vinyl}-phenyl)-methyl-carbamic acid 2-hydroxy-ethyl ester]"
12,48,"Cc1cc(N(C)C(=O)N(C)C)cc(C)c1/C=C/S(=O)(=O)N1CCC2(CC1)N=C(c1cccc(OC(F)(F)F)c1)NC2=O [Compound 1013, 1-(3,5-Dimethyl-4-{(E)-2-[4-oxo-2-(3-trifluoromethoxy-phenyl)-1,3,8-triaza-spiro[4.5]dec-1-ene-8-sulfonyl]-vinyl}-phenyl)-1,3,3-trimethyl-urea]"
13,84,"CNC(=O)N(C)c1cc(C)c(/C=C/S(=O)(=O)N2CCC3(CC2)N=C(c2cccc(OC(F)(F)F)c2)NC3=O)c(C)c1 [Compound 1014, 1-(3,5-dimethyl-4-{(E)-2-[4-oxo-2-(3-trifluoromethoxy-phenyl)-1,3,8-triaza-spiro[4.5]dec-1-ene-8-sulfonyl]-vinyl}-phenyl)-1,3-dimethyl-urea]"

# The remaining lines, values behind:
row,Compound,cAMP production activity (%)
1,"Cc1cc(C(=O)N2CCN(C)CC2)cc(C)c1/C=C/S(=O)(=O)N1CCC2(CC1)N=C(C1CCC(CCC(F)(F)F)CC1)NC2=O (stereo not shown) [Compound 991, 8-{(E)-2-[2,6-dimethyl-4-(4-methyl-piperazine-1-carbonyl)-phenyl]-ethenesulfonyl}-2-[4-(3,3,3-trifluoro-propyl)-cyclohexyl]-1,3,8-triaza-spiro[4.5]dec-1-en-4-one]",64
2,"Cc1cc(C(=O)N2CCCO2)cc(C)c1/C=C/S(=O)(=O)N1CCC2(CC1)N=C(C1CCC(CCC(F)(F)F)CC1)NC2=O (stereo not shown) [Compound 992, 8-{(E)-2-[4-(isoxazolidine-2-carbonyl)-2,6-dimethyl-phenyl]-ethenesulfonyl}-2-[4-(3,3,3-trifluoro-propyl)-cyclohexyl]-1,3,8-triaza-spiro[4.5]dec-1-en-4-one]",65
3,"Cc1cc(C(=O)N2CCC(OC[C@H](O)CO)CC2)cc(C)c1/C=C/S(=O)(=O)N1CCC2(CC1)N=C(C1CCC(CCC(F)(F)F)CC1)NC2=O (stereo partly drawn) [Compound 993, 8-((E)-2-{4-[4-((R)-2,3-dihydroxy-propoxy)-piperidine-1-carbonyl]-2,6-dimethyl-phenyl}-ethenesulfonyl)-2-[4-(3,3,3-trifluoro-propyl)-cyclohexyl]-1,3,8-triaza-spiro[4.5]dec-1-en-4-one]",64
4,"Cc1cc(C(=O)N(C)C)cc(C)c1/C=C/S(=O)(=O)N1CCC2(CC1)N=C(C1CCC(CCC(F)(F)F)CC1)NC2=O (stereo not shown) [Compound 994, 3,5,N,N-tetramethyl-4-((E)-2-{4-oxo-2-[4-(3,3,3-trifluoro-propyl)-cyclohexyl]-1,3,8-triaza-spiro[4.5]dec-1-ene-8-sulfonyl}-vinyl)-benzamide]",87
5,"Cc1cc(C(=O)N2CCN(C)CC2)cc(C)c1CCS(=O)(=O)N1CCC2(CC1)N=C(C1CCC(CCC(F)(F)F)CC1)NC2=O (stereo not shown) [Compound 995, 8-{2-[2,6-Dimethyl-4-(4-methyl-piperazine-1-carbonyl)-phenyl]-ethanesulfonyl}-2-[4-(3,3,3-trifluoro-propyl)-cyclohexyl]-1,3,8-triaza-spiro[4.5]dec-1-en-4-one]",98
6,"Cc1cc(C(=O)NN)cc(C)c1/C=C/S(=O)(=O)N1CCC2(CC1)N=C(C1CCC(CCC(F)(F)F)CC1)NC2=O (stereo not shown) [Compound 996, 3,5-Dimethyl-4-((E)-2-{4-oxo-2-[4-(3,3,3-trifluoro-propyl)-cyclohexyl]-1,3,8-triaza-spiro[4.5]dec-1-ene-8-sulfonyl}-vinyl)-benzoic acid hydrazide]",85
7,"Cc1cc(C(=O)N2CCCN2)cc(C)c1/C=C/S(=O)(=O)N1CCC2(CC1)N=C(C1CCC(CCC(F)(F)F)CC1)NC2=O (stereo not shown) [Compound 997, 8-{(E)-2-[2,6-dimethyl-4-(pyrazolidine-1-carbonyl)-phenyl]-ethenesulfonyl}-2-[4-(3,3,3-trifluoro-propyl)-cyclohexyl]-1,3,8-triaza-spiro[4.5]dec-1-en-4-one]",74
8,"CON(C)C(=O)c1cc(C)c(/C=C/S(=O)(=O)N2CCC3(CC2)N=C(C2CCC(C)CC2)NC3=O)c(C)c1 (stereo not shown) [Compound 998, N-Methoxy-3,5,N-trimethyl-4-{(E)-2-[2-(4-methyl-cyclohexyl)-4-oxo-1,3,8-triaza-spiro[4.5]dec-1-ene-8-sulfonyl]-vinyl}-benzamide]",92
9,"Cc1cc(C(=O)N2CCC(C)(O)CC2)cc(C)c1/C=C/S(=O)(=O)N1CCC2(CC1)N=C(C1CCC(C)CC1)NC2=O (stereo not shown) [Compound 999, 8-{(E)-2-[4-(4-hydroxy-4-methyl-piperidine-1-carbonyl)-2,6-dimethyl-phenyl]-ethenesulfonyl}-2-(4-methyl-cyclohexyl)-1,3,8-triaza-spiro[4.5]dec-1-en-4-one]",61
